Test results: patent US20050239656A1, “Pyridine compounds or salts thereof and herbicides containing the same” (priority 2002, published 2005)

Legend:
barnyardgrass [1] = experiment: Test Example 1: foliage treatment, upland pot test; assay type: in vivo, Echinochloa crus-galli L.; conditions: active ingredient 1000 g/ha, observed 18th to 23rd day, 0 = non-treated, 100 = complete kill
Text: (§1) Upland field soil was put into a 1/170,000 ha pot, and seed of various plants were sown. Then, when the plants reached predetermined leaf stages ((1) barnyardgrass: 1.3 to 2.8 leaf stages, (2) crabgrass: 1.0 to 2.8 leaf stages, (3) green foxtail: 1.3 to 2.6 leaf stages, (4) redroot pigweed: 0.1 to 1.2 leaf stages, (5) prickly sida: 0.1 to 1.2 leaf stages, (6) velvetleaf: 0.1 to 1.2 leaf stages, (7) tall morningglory: 0.1 to 1.5 leaf stages, (8) rice: 1.2 to 2.6 leaf stages, (9) wheat: 1.3 to 2.4 leaf stages, (10) corn, 2.1 to 3.2 leaf stages, (11) soybean: 0.1 to 0.4 leaf stage), a wettable powder or emulsifiable concentrate having the compound of the present invention formulated in accordance with a usual formulation method, was weighed so that the active ingredient would be a predetermined amount, and diluted with water in an amount of 500 L/ha. To the diluted solution, 0.1% (v/v) of agricultural spreader was added. The herbicide thus adjusted was applied by a small size sprayer for foliage treatment. On the 18th to 23rd days after the application of the herbicide, the growth of the respective plants was visually observed, and the herbicidal effects were evaluated by the growth controlling degrees (%) ranging from 0 (equivalent to the non-treated plot) to 100 (complete kill), whereby the results shown in Table 3, were obtained.

barnyardgrass [2] = experiment: Test Example 2: soil surface treatment, upland pot test; assay type: in vivo, Echinochloa crus-galli L.; conditions: observed 20th to 28th day
How it was run: (§2)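 Visual growth-control ratings, from 0 (like the non-treated plot) to 100 (total kill), were made between days 20 and 28 after a soil-surface spray. The compound, formulated as wettable powder or emulsifiable concentrate and diluted at 1,500 L/ha, went on one day post-sowing in upland-soil pots of 1/170,000 ha.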

corn [3] = experiment: Test Example 1: foliage treatment, upland pot test; assay type: in vivo, Zea mays L.; conditions: crop, active ingredient 1000 g/ha, observed 18th to 23rd day, 0 = non-treated, 100 = complete kill
Text: as §1

green foxtail [4] = experiment: Test Example 1: foliage treatment, upland pot test; assay type: in vivo, Setaria viridis L.; conditions: active ingredient 1000 g/ha, observed 18th to 23rd day, 0 = non-treated, 100 = complete kill
Text: as §1

rice (var. Nihonbare) = experiment: Test Example 3: paddy pot test, transplanted rice; assay type: in vivo, Oryza sativa L.; conditions: applied 4th day after transplantation, visually observed 21st day after application, 0 = non-treated, 100 = complete kill
How it was run: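 Rice (var. Nihonbare) at 2 leaf stage transplanted 3 cm deep into puddled paddy soil under 3–4 cm flooding; on day 4 after transplanting, diluted wettable powder or emulsifiable concentrate applied by pipette under submerged conditions at a set active-ingredient dose. Growth scored visually 21 days after application, 0 (untreated) to 100 (complete kill) %.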

velvetleaf [5] = experiment: Test Example 2: soil surface treatment, upland pot test; assay type: in vivo, Abutilon theophrasti MEDIC.; conditions: observed 20th to 28th day
How it was run: as §2

redroot pigweed [6] = experiment: as above; assay type: in vivo, Amaranthus retroflexus L.; conditions: observed 20th to 28th day
How it was run: as §2

redroot pigweed [7] = experiment: Test Example 1: foliage treatment, upland pot test; assay type: in vivo, Amaranthus retroflexus L.; conditions: active ingredient 1000 g/ha, observed 18th to 23rd day, 0 = non-treated, 100 = complete kill
Text: as §1

soybean [8] = experiment: Test Example 1: foliage treatment, upland pot test; assay type: in vivo, Glycine max Merr.; conditions: crop, active ingredient 1000 g/ha, observed 18th to 23rd day, 0 = non-treated, 100 = complete kill
Text: as §1

prickly sida [9] = experiment: Test Example 1: foliage treatment, upland pot test; assay type: in vivo, Sida spinosa L.; conditions: active ingredient 1000 g/ha, observed 18th to 23rd day, 0 = non-treated, 100 = complete kill
Text: as §1

rice [10] = experiment: Test Example 2: soil surface treatment, upland pot test; assay type: in vivo, Oryza sativa L.; conditions: observed 20th to 28th day
How it was run: as §2

crabgrass = experiment: as above; assay type: in vivo, Digitaria sanguinalis L.; conditions: observed 20th to 28th day
How it was run: as §2

green foxtail [11] = experiment: as above; assay type: in vivo, Setaria viridis L.; conditions: observed 20th to 28th day
How it was run: as §2

velvetleaf [12] = experiment: Test Example 1: foliage treatment, upland pot test; assay type: in vivo, Abutilon theophrasti MEDIC.; conditions: active ingredient 1000 g/ha, observed 18th to 23rd day, 0 = non-treated, 100 = complete kill
Text: as §1

rice [13] = experiment: Test Example 1: foliage treatment, upland pot test; assay type: in vivo, Oryza sativa L.; conditions: crop, active ingredient 1000 g/ha, observed 18th to 23rd day, 0 = non-treated, 100 = complete kill
Text: as §1

prickly sida [14] = experiment: Test Example 2: soil surface treatment, upland pot test; assay type: in vivo, Sida spinosa L.; conditions: observed 20th to 28th day
How it was run: as §2

japanese bulrush = experiment: Test Example 3: paddy pot test, application under submerged conditions; assay type: in vivo, Scirpus juncoides; conditions: submerged application at 0.5 leaf stage, visually observed 14 days after application, 0 = non-treated, 100 = complete kill
How it was run: (§3)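 Visual growth-control rating (0 = untreated, 100 = complete kill) 14 days after treatment. The formulated compound, as a diluted wettable powder or emulsifiable concentrate, went into 3–4 cm flood water at a predetermined active-ingredient dose once the weeds reached 0.5 leaf stage (wapato: primary leaf stage).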

soybean [15] = experiment: Test Example 2: soil surface treatment, upland pot test; assay type: in vivo, Glycine max Merr.; conditions: observed 20th to 28th day
How it was run: as §2

corn [16] = experiment: as above; assay type: in vivo, Zea mays L.; conditions: observed 20th to 28th day
How it was run: as §2

japanese ribbon wapato = experiment: Test Example 3: paddy pot test, application under submerged conditions; assay type: in vivo, Sagittaria pygniaea; conditions: submerged application at primary leaf stage, visually observed 14 days after application, 0 = non-treated, 100 = complete kill
How it was run: as §3

barnyardgrass [17] = experiment: as above; assay type: in vivo, Echinochloa crus-galli L.; conditions: submerged application at 0.5 leaf stage, visually observed 14 days after application, 0 = non-treated, 100 = complete kill
How it was run: as §3

With `CC(C)C(c1cnccc1C(F)(F)F)N(C)C(=O)Cc1ccccc1Cl` (stereo not drawn) [I-26] as the compound, how does the “Growth controlling degree (%) Barnyardgrass” value (barnyardgrass [1]) read?
Its value is 90%.

And the “Growth controlling degree (%) Barnyardgrass” value (barnyardgrass [2]; active ingredient 250 g/ha)?
The value was 80%.

And the “Growth controlling degree (%) Corn” value (corn [3])?
Its value is 30%.

What about the “Growth controlling degree (%) Green foxtail” value (green foxtail [4]) of the same compound?
The value was 70%.

And the “Growth controlling degree (%) Rice” value (rice (var. Nihonbare); active ingredient 500 g/ha)?
The value was 20%.

What about the “Growth controlling degree (%) Velvetleaf” value (velvetleaf [5]; active ingredient 250 g/ha) of the same compound?
Its value is 80%.

What about the “Growth controlling degree (%) Redroot pigweed” value (redroot pigweed [6]; active ingredient 250 g/ha) of the same compound?
Its value is 70%.

And the “Growth controlling degree (%) Redroot pigweed” value (redroot pigweed [7])?
Its value is 90%.

What about the “Growth controlling degree (%) Soybean” value (soybean [8]) of the same compound?
The value was 50%.

And the “Growth controlling degree (%) Prickly sida” value (prickly sida [9])?
Its value is 80%.

And the “Growth controlling degree (%) Rice” value (rice [10]; active ingredient 250 g/ha)?
Its value is 10%.

And the “Growth controlling degree (%) Crabgrass” value (crabgrass; active ingredient 250 g/ha)?
Its value is 80%.

And the “Growth controlling degree (%) Green foxtail” value (green foxtail [11]; active ingredient 250 g/ha)?
The value was 80%.

What about the “Growth controlling degree (%) Velvetleaf” value (velvetleaf [12]) of the same compound?
Its value is 80%.

And the “Growth controlling degree (%) Rice” value (rice [13])?
Its value is 30%.

What about the “Growth controlling degree (%) Prickly sida” value (prickly sida [14]; active ingredient 250 g/ha) of the same compound?
Its value is 70%.

What about the “Growth controlling degree (%) Japanese bulrush” value (japanese bulrush; active ingredient 500 g/ha) of the same compound?
Its value is 90%.

What about the “Growth controlling degree (%) Soyabean” value (soybean [15]; active ingredient 250 g/ha) of the same compound?
Its value is 0%.

And the “Growth controlling degree (%) Corn” value (corn [16]; active ingredient 250 g/ha)?
Its value is 40%.

And the “Growth controlling degree (%) Japanese ribbon wapato” value (japanese ribbon wapato; active ingredient 500 g/ha)?
The value was 10%.

How did the “Growth controlling degree (%) Barnyardgrass” value (barnyardgrass [1]) turn out when `CC(C)C(c1cnccc1Cl)N(C)C(=O)Cc1ccc(F)c(F)c1` (stereo not drawn) [I-73] was run?
The value was 40%.

What about the “Growth controlling degree (%) Corn” value (corn [3]) of the same compound?
The value was 0%.

And the “Growth controlling degree (%) Rice” value (rice (var. Nihonbare); active ingredient 125 g/ha)?
The value was 0%.

What about the “Growth controlling degree (%) Redroot pigweed” value (redroot pigweed [7]) of the same compound?
Its value is 60%.

What about the “Growth controlling degree (%) Soybean” value (soybean [8]) of the same compound?
The value was 70%.

And the “Growth controlling degree (%) Prickly sida” value (prickly sida [9])?
The value was 85%.

What about the “Growth controlling degree (%) Velvetleaf” value (velvetleaf [12]) of the same compound?
The value was 90%.

And the “Growth controlling degree (%) Barnyardgrass” value (barnyardgrass [17]; active ingredient 125 g/ha)?
Its value is 98%.

And the “Growth controlling degree (%) Rice” value (rice [13])?
Its value is 30%.

What about the “Growth controlling degree (%) Japanese bulrush” value (japanese bulrush; active ingredient 125 g/ha) of the same compound?
The value was 90%.

What about the “Growth controlling degree (%) Japanese ribbon wapato” value (japanese ribbon wapato; active ingredient 125 g/ha) of the same compound?
The value was 20%.

For `CCN(C(=O)Cc1cccc(C(F)(F)F)c1)C(c1cnccc1C(F)(F)F)C(C)C` (stereo not drawn) [I-75], which “Growth controlling degree (%) Barnyardgrass” value (barnyardgrass [1]) is on record?
The value was 70%.

What about the “Growth controlling degree (%) Barnyardgrass” value (barnyardgrass [2]; active ingredient 500 g/ha) of the same compound?
The value was 100%.

What about the “Growth controlling degree (%) Corn” value (corn [3]) of the same compound?
Its value is 10%.

What about the “Growth controlling degree (%) Rice” value (rice (var. Nihonbare); active ingredient 250 g/ha) of the same compound?
Its value is 0%.

What about the “Growth controlling degree (%) Velvetleaf” value (velvetleaf [5]; active ingredient 500 g/ha) of the same compound?
Its value is 70%.

And the “Growth controlling degree (%) Redroot pigweed” value (redroot pigweed [6]; active ingredient 500 g/ha)?
The value was 40%.

What about the “Growth controlling degree (%) Redroot pigweed” value (redroot pigweed [7]) of the same compound?
The value was 60%.

And the “Growth controlling degree (%) Soybean” value (soybean [8])?
The value was 30%.

And the “Growth controlling degree (%) Prickly sida” value (prickly sida [9])?
The value was 80%.

And the “Growth controlling degree (%) Rice” value (rice [10]; active ingredient 500 g/ha)?
Its value is 0%.

What about the “Growth controlling degree (%) Crabgrass” value (crabgrass; active ingredient 500 g/ha) of the same compound?
Its value is 100%.

What about the “Growth controlling degree (%) Green foxtail” value (green foxtail [11]; active ingredient 500 g/ha) of the same compound?
The value was 100%.

And the “Growth controlling degree (%) Velvetleaf” value (velvetleaf [12])?
Its value is 90%.

And the “Growth controlling degree (%) Barnyardgrass” value (barnyardgrass [17]; active ingredient 250 g/ha)?
Its value is 100%.

And the “Growth controlling degree (%) Rice” value (rice [13])?
The value was 20%.

What about the “Growth controlling degree (%) Prickly sida” value (prickly sida [14]; active ingredient 500 g/ha) of the same compound?
The value was 80%.

What about the “Growth controlling degree (%) Japanese bulrush” value (japanese bulrush; active ingredient 250 g/ha) of the same compound?
Its value is 70%.

What about the “Growth controlling degree (%) Soyabean” value (soybean [15]; active ingredient 500 g/ha) of the same compound?
Its value is 0%.

And the “Growth controlling degree (%) Corn” value (corn [16]; active ingredient 500 g/ha)?
The value was 10%.

What about the “Growth controlling degree (%) Japanese ribbon wapato” value (japanese ribbon wapato; active ingredient 250 g/ha) of the same compound?
Its value is 40%.
